Measurements from patent publication US20130090329A1, “Methods and Compositions for the Treatment of Psychotic Disorders Through the Identification of the Olanzapine Poor Response Predictor Genetic Signature” (SUREGENE, LLC, priority 2011, published 2013).
Marks after values point to notes of the source that are not given here.

Experiments:
[1] = tested on: patients suffering from schizophrenia and related disorders; test: CATIE study: categorical responders (change in total PANSS ≦−10%, LOCF) by OPRP status; type: in vivo, human; conditions: for Responders: change in total PANSS ≦−10%
Experimental: A total of 738 subjects consented to provide DNA for genetic study. Details regarding SNP genotyping and quality control have been recently published (Sullivan et al., 2008). Only retrospective genetic analyses, judged to be exempt from human studies requirements by an IRB, were conducted in the current study. For the genetic analyses presented herein, the inventors combined and evaluated drug response data for both Phase I and Phase IB of the CATIE study. All tested patients were studied using well established clinical endpoints comparing baseline, intermediate, and last observation carried forward (LOCF) for the PANSS scores using CATIE data. LOCF analysis is a commonly used clinical endpoint for clinical trials for neuropsychiatric drugs, with particular changes in PANSS scores being used to indicate clinically significant response (Leucht et al., 2009). […] As described above CATIE patients were studied using well established clinical endpoints comparing baseline, intermediate, and last observation carried forward (LOCF) for the PANSS scores.

[2] = tested on: patients suffering from schizophrenia and related disorders; test: CATIE study: worsening of symptoms (LOCF delta PANSS ≧0%) by OPRP status; type: in vivo, human; conditions: for Worsening: delta PANSS ≧0%
Experimental: (§1) A total of 738 subjects consented to provide DNA for genetic study. […] Only retrospective genetic analyses, judged to be exempt from human studies requirements by an IRB, were conducted in the current study. For the genetic analyses presented herein, the inventors combined and evaluated drug response data for both Phase I and Phase IB of the CATIE study. All tested patients were studied using well established clinical endpoints comparing baseline, intermediate, and last observation carried forward (LOCF) for the PANSS scores using CATIE data. LOCF analysis is a commonly used clinical endpoint for clinical trials for neuropsychiatric drugs, with particular changes in PANSS scores being used to indicate clinically significant response (Leucht et al., 2009).
The inventors also examined the impact of the OPRP status on whether patients' symptoms actually got worse when treated with olanzapine. This is an important safety consideration for antipsychotic drugs response, and failure of a drug to display the desired clinical response on a specific subset of patients could impact the drug label, being contraindicated for a particular subset of patients (see Example 5: “Risk Management Involving the OPRP Genetic Test). […]

psychopathology (PANSS) [3] = conditions: meta-analysis, population not segmented by OPRP; negative = greater reduction in PANSS; cited from earlier work
psychopathology (PANSS) [4] = conditions: weighted mean difference in PANSS score (absolute); negative = olanzapine superior; cited from earlier work
[5] = tested on: patients suffering from schizophrenia and related disorders; test: CATIE study: percent change in total PANSS from baseline to LOCF, segmented by OPRP genetic signature status; type: in vivo, human
Description: Genotype and phenotype data for the CATIE trial were recently made available to qualified researchers through the NIMH Center for Collaborative Genetic Studies on Mental Disorders. The sample consisted of a total of 738 patients. For the present study, the inventors assigned OPRP status to 628 subjects, including 411 subjects of self-reported European ancestry and 217 subjects of self-reported African ancestry. Further details on the patient population are described in the study by Sullivan and coworkers (Sullivan et al., 2008). The CATIE SNP genotype data evaluated included a total of 492,900 SNPs located throughout the genome.
The design of the CATIE study has been described in detail by others (Lieberman et al., 2005; Stroup et al., 2003). […] Subjects that failed Phase I treatment with the typical antipsychotic perphenazine were treated differently than those subjects that failed phase I treatment with an atypical antipsychotic. Instead of entering into Phase II of the trial, subjects who switched from perphenazine entered Phase IB. […] Subjects who failed Phase IB then entered Phase II.
as §1
Using the clinical data from the CAIE trial, the inventors derived several different metrics used for quantifying response in clinical trials of antipsychotic medications. The most commonly used psychometric instrument is the Positive and Negative Syndrome Scale (PANSS), a 30-item semi-quantitative instrument scored by clinical professionals (Kay et al., 1987). The greater the decrease in PANSS score, the better the clinical response. The most direct measure of clinical response is absolute change in PANSS score. In addition to absolute change, the improvement is often reported as a percentage change from baseline PANSS score.
To examine the relationship of genotypes to drug response the inventors used the publically available PLINK software (Purcell et al., 2007; available on the world wide web at pngu.mgh.harvard.edu/purcell/plink/) and Helix tree (Version 6.4.1; Golden Helix, Bozeman, Mont.). The inventors used Last observation Carry Forward (LOCF) delta PANSS values as a measure of response to antipsychotic treatment. […] The inventors refined the test further by conducting association analysis on using only those subjects that comprised the TT genotype of rs11960832.
As mentioned previously, the mean change in absolute or percent PANSS provides an important measure of efficacy in patients undergoing antipsychotic treatments. Indeed, many pivotal trials in the psychosis field used absolute and/or percentage change in PANSS Score as the primary endpoint (Leucht et al., 2009).

psychopathology = conditions: meta-analysis, Davis et al. (2003); cited from earlier work
[6] = among antipsychotic medications; cited from earlier work
[7] = Caucasian subjects, OPRP Negative
[8] = Caucasian subjects, OPRP Positive
[9] = OPRP Negative subjects, CATIE Phase I and IB, more negative = greater improvement
[10] = OPRP Positive subjects, CATIE Phase I and IB, more negative = greater improvement
[11] = comparator = OPRP positive subjects treated with the labelled drug, positive = poorer response to olanzapine
[12] = olanzapine OPRP positive versus labelled drug OPRP positive, CATIE
[13] = Caucasian patients, OPRP Negative, LOCF
[14] = Caucasian patients, OPRP Negative
[15] = Caucasian patients, OPRP Positive, LOCF
[16] = Caucasian patients, OPRP Positive

## Cc1nc2n(c(=O)c1CCN1CCC(c3noc4cc(F)ccc34)CC1)CCCC2 [Risperidone]
[1]; OPRP Negative
  Number of individuals with change in total PANSS ≦−10% (responders): 55
  Number of individuals with change in total PANSS ≧−10% (non-responders): 91
  Responders: 38%^+
[1]; OPRP Positive
  Number of individuals with change in total PANSS ≦−10% (responders): 7
  Number of individuals with change in total PANSS ≧−10% (non-responders): 12
  Responders: 35%^
[2]; OPRP Negative, LOCF
  Number of individuals with delta PANSS ≦0% (non-worsening): 91
  Number of individuals with delta PANSS ≧0% (worsening symptoms): 55
  Worsening: 38%^+++
[2]; OPRP Positive, LOCF
  Number of individuals with delta PANSS ≦0% (non-worsening): 13
  Number of individuals with delta PANSS ≧0% (worsening symptoms): 7
  Worsening: 35%^
Psychopathology (PANSS) [3]
  Effect Size vs. Placebo: −0.59
Psychopathology (PANSS) [4]
  Mean difference between olanzapine and labelled atypical antipsychotic, Meta-analysis: −1.9

## OCCOCCN1CCN(C2=Nc3ccccc3Sc3ccccc32)CC1 [Quetiapine]
[5]; Caucasian subjects, CATIE
  Response of OPRP positive group compared with OPRP negative group (percent change in PANSS): responded worse
[5]; [7]
  DELTA PANSS % (mean change in PANSS score from baseline to LOCF): −0.6%
[5]; [8]
  DELTA PANSS % (mean change in PANSS score from baseline to LOCF): 12%
[5]; [9]
  DELTA PANSS % (mean change in PANSS score from baseline to LOCF): −3.2^++++ %
[5]; [10]
  DELTA PANSS % (mean change in PANSS score from baseline to LOCF): −1.2%
[5]; OPRP negative subjects, delta PANSS, negative = olanzapine superior
  Mean difference between olanzapine and labelled atypical antipsychotic, CATIE OPRP−: −8.4
[5]; [11]
  Mean difference in delta PANSS: olanzapine-treated OPRP positive group minus comparator group: 5.5
[5]; delta PANSS, negative = olanzapine superior
  Mean difference between olanzapine and labelled atypical antipsychotic, CATIE unsegemented: −6.2
[5]; [12]
  Effect size (mean difference / standard deviation): 0.3^b
[5]; olanzapine OPRP positive versus labelled drug OPRP positive, CATIE, listed as quetiapine
  Effect size (mean difference / standard deviation): 0.3
[1]; OPRP Negative
  Number of individuals with change in total PANSS ≦−10% (responders): 48
  Number of individuals with change in total PANSS ≧−10% (non-responders): 99
  Responders: 33%^+++
[1]; OPRP Positive
  Number of individuals with change in total PANSS ≦−10% (responders): 4
  Number of individuals with change in total PANSS ≧−10% (non-responders): 14
  Responders: 22%
[2]; [13]
  Number of individuals with delta PANSS ≦0% (non-worsening): 85
  Number of individuals with delta PANSS ≧0% (worsening symptoms): 62
[2]; [14]
  Worsening: 42%*
[2]; [15]
  Number of individuals with delta PANSS ≦0% (non-worsening): 2
  Number of individuals with delta PANSS ≧0% (worsening symptoms): 7
[2]; [16]
  Worsening: 78%
[2]; OPRP Negative, LOCF
  Number of individuals with delta PANSS ≦0% (non-worsening): 95
  Number of individuals with delta PANSS ≧0% (worsening symptoms): 62
  Worsening: 42%^+++
[2]; OPRP Positive, LOCF
  Number of individuals with delta PANSS ≦0% (non-worsening): 9
  Number of individuals with delta PANSS ≧0% (worsening symptoms): 9
  Worsening: 50%
Psychopathology (PANSS) [3]
  Effect Size vs. Placebo: −0.42
psychopathology
  Effect Size vs. FGA (first generation antipsychotics): 0.01
Psychopathology (PANSS) [4]
  Mean difference between olanzapine and labelled atypical antipsychotic, Meta-analysis: −3.7

## OCCN1CCN(CCCN2c3ccccc3Sc3ccc(Cl)cc32)CC1 [Perphenazine]
[5]; [9]
  DELTA PANSS % (mean change in PANSS score from baseline to LOCF): −4.2^+++ %
[5]; [10]
  DELTA PANSS % (mean change in PANSS score from baseline to LOCF): −7.7^ %
[5]; [11]
  Mean difference in delta PANSS: olanzapine-treated OPRP positive group minus comparator group: 12
[5]; [12]
  Effect size (mean difference / standard deviation): 0.7
[1]; OPRP Negative
  Number of individuals with change in total PANSS ≦−10% (responders): 39
  Number of individuals with change in total PANSS ≧−10% (non-responders): 71
  Responders: 35%^+
[1]; OPRP Positive
  Number of individuals with change in total PANSS ≦−10% (responders): 5
  Number of individuals with change in total PANSS ≧−10% (non-responders): 7
  Responders: 42%^^
[2]; OPRP Negative, LOCF
  Number of individuals with delta PANSS ≦0% (non-worsening): 65
  Number of individuals with delta PANSS ≧0% (worsening symptoms): 45
  Worsening: 41%^+++
[2]; OPRP Positive, LOCF
  Number of individuals with delta PANSS ≦0% (non-worsening): 9
  Number of individuals with delta PANSS ≧0% (worsening symptoms): 3
  Worsening: 25%^

## CN1CCN(C2=Nc3cc(Cl)ccc3Nc3ccccc32)CC1 [Clozapine]
[5]; [7]
  DELTA PANSS % (mean change in PANSS score from baseline to LOCF): −13.1%
[5]; [8]
  DELTA PANSS % (mean change in PANSS score from baseline to LOCF): 28%
[2]; [13]
  Number of individuals with delta PANSS ≦0% (non-worsening): 25
  Number of individuals with delta PANSS ≧0% (worsening symptoms): 9
[2]; [14]
  Worsening: 26%*
[2]; [15]
  Number of individuals with delta PANSS ≦0% (non-worsening): 0
  Number of individuals with delta PANSS ≧0% (worsening symptoms): 2
[2]; [16]
  Worsening: 100%
[6]
  Incidence of metabolic side-effects: greatest incidence of metabolic side-effects

## Cc1cc2c(s1)Nc1ccccc1N=C2N1CCN(C)CC1 [Olanzapine]
[5]; CATIE study, range over comparisons
  Effect size, olanzapine-treated OPRP positive patients compared to various other OPRP-drug combinations: 0.2 to 1.0
[5]; [9]
  DELTA PANSS % (mean change in PANSS score from baseline to LOCF): −11.6%
[5]; [10]
  DELTA PANSS % (mean change in PANSS score from baseline to LOCF): 4.3%
[5]; comparator = olanzapine-treated OPRP negative subjects
  Mean difference in delta PANSS: olanzapine-treated OPRP positive group minus comparator group: 15.9
[5]; olanzapine OPRP positive versus olanzapine OPRP negative, CATIE
  Effect size (mean difference / standard deviation): 1.0^a
[5]; olanzapine OPRP positive versus olanzapine OPRP negative, CATIE, listed as olanzapine
  Effect size (mean difference / standard deviation): 1.0
[1]; OPRP Negative
  Number of individuals with change in total PANSS ≦−10% (responders): 73
  Number of individuals with change in total PANSS ≧−10% (non-responders): 66
  Responders: 53%*
[1]; OPRP Positive
  Number of individuals with change in total PANSS ≦−10% (responders): 1
  Number of individuals with change in total PANSS ≧−10% (non-responders): 25
  Responders: 4%
[2]; OPRP Negative, LOCF
  Number of individuals with delta PANSS ≦0% (non-worsening): 113
  Number of individuals with delta PANSS ≧0% (worsening symptoms): 26
  Worsening: 19%*
[2]; OPRP Positive, LOCF
  Number of individuals with delta PANSS ≦0% (non-worsening): 8
  Number of individuals with delta PANSS ≧0% (worsening symptoms): 18
  Worsening: 69%
[6]
  Incidence of metabolic side-effects: greatest incidence of metabolic side-effects
